Data: patent US6380198B1 (Laboratoire Medidom S.A., priority 1997, dated 2002)
“And” between values parts separate entries of the source, which are not always exact repeats. Equal values may be shown once.

Legend:
[1] = system: intraocular pressure of rabbits showing normal baseline intraocular pressure; assay: Intraocular pressure in rabbits with normal intraocular pressure after topical instillation; type: in vivo, rabbit (Vienna Blue, pigmented); conditions: for Intraocular pressure (mmHg) at the time (min): 30, average ± S.D. / Intraocular pressure (mmHg) at the time (min): 60, average ± S.D. / Intraocular pressure (mmHg) at the time (min): 90, average ± S.D. / Intraocular pressure (mmHg) at the time (min): 120, average ± S.D. / Intraocular pressure (mmHg) at the time (min): 180, average ± S.D. / Intraocular pressure (mmHg) at the time (min): 240, average ± S.D. / Intraocular pressure (mmHg) at the time (min): 0, average ± S.D. / Intraocular pressure (mmHg) at the time (min): 30 / Intraocular pressure (mmHg) at the time (min): 60 / Intraocular pressure (mmHg) at the time (min): 90 / Intraocular pressure (mmHg) at the time (min): 120 / Intraocular pressure (mmHg) at the time (min): 180 / Intraocular pressure (mmHg) at the time (min): 240 / Intraocular pressure (mmHg) at the time (min): 0: Table 1, 50 μl eye-drops: 0.050% flunarizine, 0.056% verapamil, 0.051% diltiazem, 0.043% nifedipine; for Intraocular pressure (mmHg) at the time (min): 30, average ± S.D. / Intraocular pressure (mmHg) at the time (min): 60, average ± S.D. / Intraocular pressure (mmHg) at the time (min): 90, average ± S.D. / Intraocular pressure (mmHg) at the time (min): 120, average ± S.D. / Intraocular pressure (mmHg) at the time (min): 180, average ± S.D. / Intraocular pressure (mmHg) at the time (min): 240, average ± S.D. / Intraocular pressure (mmHg) at the time (min): 0, average ± S.D.: average ± S.D. of 4 rabbits; for Intraocular pressure (mmHg) at the time (min): 30, average ± S.D. / Intraocular pressure (mmHg) at the time (min): 30: 30 min after instillation; for Intraocular pressure (mmHg) at the time (min): 60, average ± S.D. / Intraocular pressure (mmHg) at the time (min): 60: 60 min after instillation; for Intraocular pressure (mmHg) at the time (min): 90, average ± S.D. / Intraocular pressure (mmHg) at the time (min): 90: 90 min after instillation; for Intraocular pressure (mmHg) at the time (min): 120, average ± S.D. / Intraocular pressure (mmHg) at the time (min): 120: 120 min after instillation; for Intraocular pressure (mmHg) at the time (min): 180, average ± S.D. / Intraocular pressure (mmHg) at the time (min): 180: 180 min after instillation; for Intraocular pressure (mmHg) at the time (min): 240, average ± S.D. / Intraocular pressure (mmHg) at the time (min): 240: 240 min after instillation; for Intraocular pressure (mmHg) at the time (min): 0, average ± S.D. / Intraocular pressure (mmHg) at the time (min): 0: time 0 = 15 min before instillation (baseline); for Intraocular pressure (mmHg) at the time (min): 30 / Intraocular pressure (mmHg) at the time (min): 60 / Intraocular pressure (mmHg) at the time (min): 90 / Intraocular pressure (mmHg) at the time (min): 120 / Intraocular pressure (mmHg) at the time (min): 180 / Intraocular pressure (mmHg) at the time (min): 240 / Intraocular pressure (mmHg) at the time (min): 0: individual rabbit, right eye
Procedure: The effects of the agent of the invention on the intraocular pressure of rabbits showing normal baseline intraocular pressure were evaluated in comparison with the action of a placebo, and with that of various other calcium channel blocking agents. Female pigmented rabbits of the Vienna Blue strain were used (supplied by Charles River Italiana, of Calco (CO)). The age of the animals at the time of starting the experimentation was 9 weeks, and their weight was 2.0-2.5 kg.
The choice of a species with pigmented iris is due to the fact that the latter represents a reliable model for the evaluation of possible modifications of the intraocular pressure caused by the products under test. The strain chosen is genetically defined, so as to limit to a minimum the variability of the biological characteristics between one animal and the other.
The animals were kept in rooms maintained under constant and controlled conditions of temperature and humidity, illuminated for 12 hours a day with artificial light and with continuous renovation of the air. The feed consisted of a standard diet having a constant and known composition, and both feed and water were available ad libitum during the whole period of the test. The rabbits were stabled for 21 days before starting the test, so as to allow a sufficient acclimatation and to suitably evaluate the health conditions of the rabbits. Each experimental group consisted of 4 animals, which were allotted to the treatment groups in a randomised way.
Each different group of animals received, by instillation in the right conjunctival fornix, 50 μl of the following products:
The weight concentrations of the various agents under test are chosen so as to correspond to the same molar concentration.
The pressure in the treated eye was measured by flattening tonometer (TonopenXL®, Mentor), 15 minutes before the instillation of the eyerops (time 0) and then 30, 60, 90, 120, 180 and 240 minutes after. As a local anaesthetic, 5 minutes before carrying out each measurement 25 μl of a commercial ophthalmic solution containing 0.4% oxybuprocaine hydrochloride (Novesine®, Sandoz) was instilled. To carry out the measurement the rabbits were placed in a suitably designed cage, that prevents any sudden movement of the animal under test.
For each animal and at each of the times listed above the average of three subsequent measurements was calculated and recorded, each one said measurements being made after 1 minute from the previous one. The intraocular pressure values at the various times were compared with the values obtained before the treatment, by means of the Student's “t” test. The comparisons between different groups were made by processing the data by the variance analysis (ANOVA) and, where possible, by the Student's “t” test for the comparison of two different experimental groups. Values of p<0.05 were considered to be statistically significant.

σ-1 receptors = molecular target: T1, σ-1 receptors (Oryctolagus cuniculus, UniProt G1SD54); assay: Inhibition of 3H(+)-N-allyl-nor-methazocine binding to irido-ciliary body membranes; parameters: species or system rabbit (New Zealand albino); conditions: rabbit irido-ciliary body P2 membranes, 300 μg protein, 37° C., 150 minutes, duplicate
T1 construct: cell membranes obtained from the irido-ciliary body complex; from tissue; host or cells: rabbit irido-ciliary body, P2 membrane fraction
Procedure: The receptor binding technique was carried out on cell membranes obtained from the irido-ciliary body complex explanted, after sacrifice, from male albino rabbits of the New Zealand strain (Charles River Italiana, of Calco (CO)). The tissue was homogenised in buffer and the P2, fraction, rich in cell membrane proteins, was isolated. […] The La total protein concentration was determined with the Lowry method.
The non specific binding was evaluated in presence of haloperidol.
All tests were carried out in duplicate. The reaction was maintained at 37° C. for 150 minutes, followed by filtration on WhatmannGF/B filters. The radioactivity left on the filters was measured by liquid scintillation spectrometry.

[2] = system: intraocular pressure of rabbits with ocular hypertension; assay: Intraocular pressure in rabbits with ocular hypertension induced by α-chymotrypsin; type: in vivo, rabbit (Vienna Blue, pigmented); conditions: for Intraocular pressure (mmHg) at the time (min): 30, average ± S.D. / Intraocular pressure (mmHg) at the time (min): 60, average ± S.D. / Intraocular pressure (mmHg) at the time (min): 90, average ± S.D. / Intraocular pressure (mmHg) at the time (min): 120, average ± S.D. / Intraocular pressure (mmHg) at the time (min): 180, average ± S.D. / Intraocular pressure (mmHg) at the time (min): 240, average ± S.D. / Intraocular pressure (mmHg) at the time (min): 0, average ± S.D. / Intraocular pressure (mmHg) at the time (min): 30 / Intraocular pressure (mmHg) at the time (min): 60 / Intraocular pressure (mmHg) at the time (min): 90 / Intraocular pressure (mmHg) at the time (min): 120 / Intraocular pressure (mmHg) at the time (min): 180 / Intraocular pressure (mmHg) at the time (min): 240 / Intraocular pressure (mmHg) at the time (min): 0: Table 3, hypertensive rabbits, 50 μl eye-drops: 0.050% flunarizine, 0.056% verapamil, 0.051% diltiazem, 0.043% nifedipine; for Intraocular pressure (mmHg) at the time (min): 30, average ± S.D. / Intraocular pressure (mmHg) at the time (min): 60, average ± S.D. / Intraocular pressure (mmHg) at the time (min): 90, average ± S.D. / Intraocular pressure (mmHg) at the time (min): 120, average ± S.D. / Intraocular pressure (mmHg) at the time (min): 180, average ± S.D. / Intraocular pressure (mmHg) at the time (min): 240, average ± S.D. / Intraocular pressure (mmHg) at the time (min): 0, average ± S.D.: average ± S.D. of 4 rabbits; for Intraocular pressure (mmHg) at the time (min): 30, average ± S.D. / Intraocular pressure (mmHg) at the time (min): 30: 30 min after instillation; for Intraocular pressure (mmHg) at the time (min): 60, average ± S.D. / Intraocular pressure (mmHg) at the time (min): 60: 60 min after instillation; for Intraocular pressure (mmHg) at the time (min): 90, average ± S.D. / Intraocular pressure (mmHg) at the time (min): 90: 90 min after instillation; for Intraocular pressure (mmHg) at the time (min): 120, average ± S.D. / Intraocular pressure (mmHg) at the time (min): 120: 120 min after instillation; for Intraocular pressure (mmHg) at the time (min): 180, average ± S.D. / Intraocular pressure (mmHg) at the time (min): 180: 180 min after instillation; for Intraocular pressure (mmHg) at the time (min): 240, average ± S.D. / Intraocular pressure (mmHg) at the time (min): 240: 240 min after instillation; for Intraocular pressure (mmHg) at the time (min): 0, average ± S.D. / Intraocular pressure (mmHg) at the time (min): 0: time 0 = 15 min before instillation (baseline); for Intraocular pressure (mmHg) at the time (min): 30 / Intraocular pressure (mmHg) at the time (min): 60 / Intraocular pressure (mmHg) at the time (min): 90 / Intraocular pressure (mmHg) at the time (min): 120 / Intraocular pressure (mmHg) at the time (min): 180 / Intraocular pressure (mmHg) at the time (min): 240 / Intraocular pressure (mmHg) at the time (min): 0: individual rabbit, right eye
Procedure: Rabbits of the same type as those described in the previous section were used for the following tests.
In the rabbit, the injection of this enzyme in the posterior chamber causes, after one month from the administration, an effect of ocular hypertension.
At the end of the quarantine period the rabbits were anaesthetised by intramuscular administration of ketamine hydrochloride and xylazine hydrochloride (RBI). The right eye was gently pushed outwardly after instilling 25 μl of Novesine® eye-drops, containing oxybuprocaine as an anaesthetic; then, a sterile solution of σ-chymotrypsin (SIGMA, Milan; 150 units in 100 μl of physiologic sterile solution) was injected in the posterior chamber of the right eye by means of a 30G sterile needle. After the administration of the enzyme, the eye was thoroughly washed with physiologic sterile solution in order to remove any traces of α-chymotrypsin which could damage the ocular tissues. Then, 2 drops of a commercial ophthalmic antibiotic solution (Colbiocin®, SIFI S.p.A., containing chloramphenicol, rolitetracycline, colistin methanesulphonate) were instilled. The treatment was carried out 3 times a day (at 8.00 a.m., 12.00 a.m. and 6.00 p.m.) for one week after the administration of α-chymotrypsin. The rabbits were employed in the tests after one month from the induction of ocular hypertension by means of the enzyme.
The rabbits, divided also in this case in groups of 4 animals, were treated by instillation of 50 μl of the product under test in the right conjunctival fornix.
The intraocular pressure in the treated eye was measured, according to the same procedure as in the previous tests, 15 minutes before the instillation of the eye-drops and 30, 60, 90, 120, 180 and 240 minutes after. The values obtained were statistically analysed according to the criteria mentioned in the foregoing.
The experimental conditions were exactly the same as before.

intraocular pressure = conditions: Payene et al. 1990; cited from earlier work
[3] = system: cornea (corneal thickness); conditions: rabbit, in vivo
Procedure: The evaluation of the thickness of the cornea was carried out ecographically by means of a UBM System 840 (Humphrey Instruments, San Leandro, Calif., USA). […] The software incorporated allows to modify the focalisation depth of the ultrasound beam, and to capture the image while varying its amplification.
The animals employed in this test were of the same type as those described in the foregoing, and were treated in the same way. The test was carried out, after having anaesthetised the animal (with ketamine hydrochloride and xylazine hydrochloride), by placing into contact with the eyeball tiny cups filled in with a coupling means (ultrasound gel).

[4] = 50 μl eye-drops, 0.050% flunarizine, equimolar comparators, 0.5% timolol

T1 sequence (G1SD54 1-223): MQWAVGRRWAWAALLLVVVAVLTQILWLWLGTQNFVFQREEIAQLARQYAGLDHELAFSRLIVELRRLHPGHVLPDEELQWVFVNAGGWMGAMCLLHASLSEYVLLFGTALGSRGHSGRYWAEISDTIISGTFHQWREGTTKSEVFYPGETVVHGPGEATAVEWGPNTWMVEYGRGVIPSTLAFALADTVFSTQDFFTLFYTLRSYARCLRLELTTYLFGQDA

| SMILES | Intraocular pressure (mmHg) at the time (min): 30, average ± S.D. [1] [mmHg] | Intraocular pressure (mmHg) at the time (min): 60, average ± S.D. [1] [mmHg] | Intraocular pressure (mmHg) at the time (min): 90, average ± S.D. [1] [mmHg] | Intraocular pressure (mmHg) at the time (min): 120, average ± S.D. [1] [mmHg] | Intraocular pressure (mmHg) at the time (min): 180, average ± S.D. [1] [mmHg] | Intraocular pressure (mmHg) at the time (min): 240, average ± S.D. [1] [mmHg] | Intraocular pressure (mmHg) at the time (min): 0, average ± S.D. [1] [mmHg] | Intraocular pressure (mmHg) at the time (min): 30 [1] | Intraocular pressure (mmHg) at the time (min): 60 [1] | Intraocular pressure (mmHg) at the time (min): 90 [1] | Intraocular pressure (mmHg) at the time (min): 120 [1] | Intraocular pressure (mmHg) at the time (min): 180 [1] | Intraocular pressure (mmHg) at the time (min): 240 [1] | Intraocular pressure (mmHg) at the time (min): 0 [1] | IC50 (σ-1 receptors) [µM] | Intraocular pressure (mmHg) at the time (min): 30, average ± S.D. [2] [mmHg] | Intraocular pressure (mmHg) at the time (min): 60, average ± S.D. [2] [mmHg] | Intraocular pressure (mmHg) at the time (min): 90, average ± S.D. [2] [mmHg] | Intraocular pressure (mmHg) at the time (min): 120, average ± S.D. [2] [mmHg] | Intraocular pressure (mmHg) at the time (min): 180, average ± S.D. [2] [mmHg] | also measured |
| --- | --- | --- | --- | --- | --- | --- | --- | --- | --- | --- | --- | --- | --- | --- | --- | --- | --- | --- | --- | --- | --- |
| COc1ccc([C@@H]2Sc3ccccc3N(CCN(C)C)C(=O)[C@@H]2OC(C)=O)cc1 [diltiazem] | 15.2 ± 1.2 | 14.7 ± 0.9 | 14.7 ± 0.9 | 15 ± 0.5 | 16.2 ± 0.95 | 16 ± 0.6 | 16.7 ± 1.5 | 14 mmHg and 15 mmHg (2×) and 17 mmHg | 14 mmHg (2×) and 17 mmHg and 13 mmHg | 14 mmHg (2×) and 16 mmHg and 15 mmHg | 15 mmHg (2×) and 16 mmHg (2×) | 15 mmHg and 16 mmHg and 17 mmHg (2×) | 16 mmHg (2×) and 17 mmHg (2×) | 15 mmHg and 16 mmHg and 18 mmHg (2×) | > 10 | 49.5 ± 5.80 | 47.5 ± 5.80 | 48.2 ± 5.90 | 49.5 ± 5.68 | 49.0 ± 5.71 | Effect on intraocular pressure in rabbits with normal pressure, in words [1, 4]: neither the verapamil formulation nor the diltiazem formulation, both using the same vehicle as MEG 01, did produce any intraocular pressure decrease; Effect on intraocular pressure in rabbits with ocular hypertension, in words [2, 4]: do not show any significant reduction; Intraocular pressure (mmHg) at the time (min): 240, average ± S.D. [2]: 48.7 ± 6.13 mmHg; Intraocular pressure (mmHg) at the time (min): 0, average ± S.D. [2]: 49.0 ± 5.71 mmHg; Intraocular pressure (mmHg) at the time (min): 30 [2]: 55 mmHg and 53 mmHg and 48 mmHg and 42 mmHg; Intraocular pressure (mmHg) at the time (min): 60 [2]: 53 mmHg and 51 mmHg and 46 mmHg and 40 mmHg; Intraocular pressure (mmHg) at the time (min): 90 [2]: 54 mmHg and 52 mmHg and 46 mmHg and 41 mmHg; Intraocular pressure (mmHg) at the time (min): 120 [2]: 56 mmHg and 52 mmHg and 47 mmHg and 43 mmHg; Intraocular pressure (mmHg) at the time (min): 180 [2]: 56 mmHg and 51 mmHg and 48 mmHg and 43 mmHg; Intraocular pressure (mmHg) at the time (min): 240 [2]: 55 mmHg and 52 mmHg and 47 mmHg and 41 mmHg; Intraocular pressure (mmHg) at the time (min): 0 [2]: 55 mmHg and 52 mmHg and 47 mmHg and 42 mmHg; Intraocular pressure after topical administration to rabbits (intraocular pressure): did not detect any significant effect |
| COC(=O)C1=C(C)NC(C)=C(C(=O)OC)C1c1ccccc1[N+](=O)[O-] [nifedipine] | 14.7 ± 1.2 | 13.7 ± 0.9 | 15.5 ± 0.6 | 16.0 ± 1.5 | 16.5 ± 1.7 | 16 ± 0 | 15.7 ± 1.7 | 15 mmHg (2×) and 13 mmHg and 16 mmHg | 14 mmHg and 13 mmHg (2×) and 15 mmHg | 16 mmHg (2×) and 15 mmHg (2×) | 16 mmHg | 17 mmHg (2×) and 15 mmHg (2×) | 17 mmHg (2×) and 14 mmHg and 18 mmHg | 16 mmHg and 15 mmHg and 14 mmHg and 18 mmHg | > 10 | 47.7 ± 7.18 | 46.75 ± 6.13 | 46.5 ± 6.19 | 47.0 ± 5.47 | 48.00 ± 4.98 | Corneal swelling / alteration of corneal thickness, in words [3]: No significant effect; Intraocular pressure (mmHg) at the time (min): 240, average ± S.D. [2]: 48.00 ± 4.96 mmHg; Intraocular pressure (mmHg) at the time (min): 0, average ± S.D. [2]: 48.0 ± 5.47 mmHg; Intraocular pressure (mmHg) at the time (min): 30 [2]: 55 mmHg and 52 mmHg and 45 mmHg and 39 mmHg; Intraocular pressure (mmHg) at the time (min): 60 [2]: 53 mmHg and 50 mmHg and 45 mmHg and 39 mmHg; Intraocular pressure (mmHg) at the time (min): 90 [2]: 52 mmHg and 50 mmHg and 46 mmHg and 38 mmHg; Intraocular pressure (mmHg) at the time (min): 120 [2]: 53 mmHg and 49 mmHg and 46 mmHg and 40 mmHg; Intraocular pressure (mmHg) at the time (min): 180 [2]: 54 mmHg and 48 mmHg and 45 mmHg and 41 mmHg; Intraocular pressure (mmHg) at the time (min): 240 [2]: 54 mmHg and 49 mmHg and 47 mmHg and 42 mmHg; Intraocular pressure (mmHg) at the time (min): 0 [2]: 54 mmHg and 50 mmHg and 47 mmHg and 41 mmHg |
